Results as given in ChEMBL document CHEMBL6182942, “Discovery of a Selective, Novel TGF-βR1 Inhibitor GFH018 for the Treatment of Solid Tumors” (J Med Chem, 2025).
The source made the active and inactive calls. No cut-off for these calls is given here.

Columns and labels:
[1] = AUC (0 to last) in Beagle dog at 1 mg/kg, iv by LC-MS/MS analysis; assay type: ADME, organism-based, Canis lupus familiaris; settings: in vivo
4T1-Luc [2] = experiment: Antimetastatic activity against mouse 4T1-Luc cells implanted in BALB/c mouse assessed as reduction in metastatic rate in kidney at 100 mg/kg, po administered daily for 32 days and measured on day 30 to 35 by IVIS fluorescence analysis; assay type: functional, organism-based; settings: time 35.0 day
[3] = Clearance in CD-1 mouse at 1 mg/kg, iv by LC-MS/MS analysis; assay type: ADME, organism-based; settings: in vivo
[4] = Half life in Beagle dog at 1 mg/kg, iv by LC-MS/MS analysis; assay type: ADME, organism-based, Canis lupus familiaris; settings: in vivo
[5] = Time at which unbound plasma concentration required to show cellular IC50 for inhibition of smad phosphorylation in mouse H22 cell implanted BALB/c mouse at 15 mg/kg, po administered twice daily for 11 days; assay type: functional; settings: time 11 day
[6] = Time at which unbound plasma concentration required to show cellular IC50 for inhibition of smad phosphorylation in mouse H22 cell implanted BALB/c mouse at 50 mg/kg, po administered twice daily for 11 days; assay type: functional; settings: time 11 day
[7] = Toxicity in mouse CT26 cell implanted BALB/c mouse assessed as change in body weight at 50 mg/kg, po administered twice daily; assay type: organism-based; settings: in vivo
[8] = Mutagenicity in Salmonella typhimurium TA98 in presence of liver S9 fraction by Ames test; assay type: toxicity, subcellular; settings: salmonella enterica subsp. enterica serovar typhimurium
[9] = AUC (0 to last) in Beagle dog at 5 mg/kg, po by LC-MS/MS analysis; assay type: ADME, organism-based, Canis lupus familiaris; settings: in vivo
Cytochrome P450 2C19 = Cytochrome P450 2C19 (Homo sapiens, UniProt P33261); experiment: Inhibition of CYP2C19 in human liver microsomes using (S)-mephenytoin as substrate preincubated for 10 mins followed by NADPH regeneration system addition and measured after 20 mins by LC-MS/MS analysis; assay type: ADME, Microsome
Sequence of Cytochrome P450 2C19 (P33261 whole entry): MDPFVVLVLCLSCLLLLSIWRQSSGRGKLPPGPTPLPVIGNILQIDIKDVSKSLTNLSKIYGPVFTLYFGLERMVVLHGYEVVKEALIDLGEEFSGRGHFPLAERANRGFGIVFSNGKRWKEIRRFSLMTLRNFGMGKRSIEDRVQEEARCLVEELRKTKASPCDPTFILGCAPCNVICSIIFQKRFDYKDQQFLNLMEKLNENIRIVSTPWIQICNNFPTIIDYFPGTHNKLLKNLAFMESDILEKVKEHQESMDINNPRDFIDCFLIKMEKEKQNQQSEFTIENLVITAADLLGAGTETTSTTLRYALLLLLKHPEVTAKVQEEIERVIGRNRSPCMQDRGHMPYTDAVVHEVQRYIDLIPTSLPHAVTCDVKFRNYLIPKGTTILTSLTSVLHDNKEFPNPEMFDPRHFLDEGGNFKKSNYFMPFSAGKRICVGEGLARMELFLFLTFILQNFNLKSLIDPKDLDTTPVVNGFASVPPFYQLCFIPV

4T1-Luc [10] = experiment: Antimetastatic activity against mouse 4T1-Luc cells implanted in BALB/c mouse assessed as reduction in metastatic rate in spleen at 100 mg/kg, po administered daily for 32 days and measured on day 30 to 35 by IVIS fluorescence analysis; assay type: functional, organism-based; settings: time 35.0 day
Cytochrome P450 3A4 = Cytochrome P450 3A4 (Homo sapiens, UniProt P08684); experiment: Inhibition of CYP3A4 in human liver microsomes using midazolam as substrate preincubated for 10 mins followed by NADPH regeneration system addition and measured after 3 mins by LC-MS/MS analysis; assay type: ADME, Microsome
Sequence of Cytochrome P450 3A4 (P08684 whole entry): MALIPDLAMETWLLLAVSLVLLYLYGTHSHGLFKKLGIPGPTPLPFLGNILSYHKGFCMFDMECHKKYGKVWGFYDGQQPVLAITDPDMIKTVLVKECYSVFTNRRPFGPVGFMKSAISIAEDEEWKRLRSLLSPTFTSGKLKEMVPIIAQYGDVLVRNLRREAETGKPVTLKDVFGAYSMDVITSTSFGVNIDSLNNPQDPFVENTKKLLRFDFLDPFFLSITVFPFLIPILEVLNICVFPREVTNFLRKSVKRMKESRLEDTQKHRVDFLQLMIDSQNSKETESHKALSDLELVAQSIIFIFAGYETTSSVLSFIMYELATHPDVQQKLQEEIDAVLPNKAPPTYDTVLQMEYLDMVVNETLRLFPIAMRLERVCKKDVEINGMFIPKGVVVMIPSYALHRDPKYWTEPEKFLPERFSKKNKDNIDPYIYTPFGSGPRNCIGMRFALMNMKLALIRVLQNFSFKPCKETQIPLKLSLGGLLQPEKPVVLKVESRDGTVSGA

[11] = Volume of distribution at steady state in Beagle dog at 1 mg/kg, iv by LC-MS/MS analysis; assay type: ADME, organism-based, Canis lupus familiaris; settings: in vivo, read-out: Vdss
[12] = Drug metabolism in rat hepatocytes; assay type: ADME, cell-based, Hepatocyte
[13] = Tmax in mouse H22 cell implanted BALB/c mouse at 15 to 50 mg/kg, po administered twice daily for 11 days; assay type: ADME, organism-based; settings: in vivo, dose 15-50 mg/kg, time 11 day
[14] = Intrinsic clearance in cynomolgus monkey hepatocytes at 1 uM measured after 90 mins by LC-MS/MS analysis; assay type: ADME, cell-based, Macaca fascicularis, Hepatocyte; settings: read-out: CLH
[15] = Cmax in CD-1 mouse at 5 mg/kg, po via gavage by LC-MS/MS analysis; assay type: ADME, organism-based; settings: in vivo
4T1-Luc [16] = experiment: Antimetastatic activity against mouse 4T1-Luc cells implanted in BALB/c mouse assessed as reduction in metastatic rate in forelimb at 100 mg/kg, po administered daily for 32 days and measured on day 30 to 35 by IVIS fluorescence analysis; assay type: functional, organism-based; settings: time 35.0 day
[17] = Intrinsic clearance in dog hepatocytes at 1 uM measured after 90 mins by LC-MS/MS analysis; assay type: ADME, cell-based, Canis lupus familiaris, Hepatocyte; settings: read-out: CLH
[18] = target: Activin receptor type-1B (Homo sapiens) (UniProt P36896); experiment: Inhibition of ALK4 (unknown origin) assessed as residual activity at 1 uM relative to control
Sequence of Activin receptor type-1B (Homo sapiens) (P36896 whole entry): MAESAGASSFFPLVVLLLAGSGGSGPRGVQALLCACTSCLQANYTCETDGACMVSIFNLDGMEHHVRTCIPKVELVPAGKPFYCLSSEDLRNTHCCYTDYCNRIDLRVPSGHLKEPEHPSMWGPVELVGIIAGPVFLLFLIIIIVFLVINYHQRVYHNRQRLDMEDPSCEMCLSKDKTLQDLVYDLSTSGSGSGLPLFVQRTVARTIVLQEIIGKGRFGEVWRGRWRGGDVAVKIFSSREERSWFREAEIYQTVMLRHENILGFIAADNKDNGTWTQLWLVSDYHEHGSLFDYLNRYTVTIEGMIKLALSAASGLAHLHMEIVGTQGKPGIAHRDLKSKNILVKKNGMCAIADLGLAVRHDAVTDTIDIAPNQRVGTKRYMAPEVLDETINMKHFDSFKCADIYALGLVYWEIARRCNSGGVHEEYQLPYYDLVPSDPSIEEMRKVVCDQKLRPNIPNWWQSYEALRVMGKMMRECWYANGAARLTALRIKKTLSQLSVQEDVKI

[19] = Protein binding in mouse plasma at 0.2 to 10 uM measured after 4 hrs by equilibrium dialysis based LC-MS/MS analysis; assay type: ADME, cell-free; settings: dose 0.2-10 µM, read-out: PPB (converted)
[20] = Oral bioavailability in Beagle dog at 5 mg/kg via gavage by LC-MS/MS analysis; assay type: ADME, organism-based, Canis lupus familiaris; settings: in vivo
TGF-beta receptor type-1 = target: T1, TGF-beta receptor type-1 (Homo sapiens, UniProt P36897); experiment: Inhibition of human TGFbetaR1 expressed in HEK293 cells co-expressing SBE assessed as reduction in TGFbeta/activin A-induced SMAD phosphorylation preincubated for 4 to 5 hrs followed by TGFbeta/activin A stimulation and measured after 18 hrs by luciferase reporter gene assay; assay type: cell-based
T1 sequence (P36897 whole entry): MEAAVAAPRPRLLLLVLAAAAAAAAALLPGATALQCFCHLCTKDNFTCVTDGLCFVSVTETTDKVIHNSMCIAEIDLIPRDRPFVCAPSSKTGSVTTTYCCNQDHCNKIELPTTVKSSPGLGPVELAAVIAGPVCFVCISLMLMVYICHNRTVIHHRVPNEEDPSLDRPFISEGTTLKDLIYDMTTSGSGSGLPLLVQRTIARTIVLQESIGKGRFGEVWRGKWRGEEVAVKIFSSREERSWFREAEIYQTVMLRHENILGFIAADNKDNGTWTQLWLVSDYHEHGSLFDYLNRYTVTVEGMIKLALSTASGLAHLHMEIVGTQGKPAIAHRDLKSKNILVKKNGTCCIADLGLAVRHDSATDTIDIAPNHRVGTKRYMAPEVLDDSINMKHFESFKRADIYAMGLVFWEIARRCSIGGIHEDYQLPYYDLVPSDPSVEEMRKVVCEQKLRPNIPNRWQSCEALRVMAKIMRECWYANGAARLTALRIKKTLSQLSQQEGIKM

[21] = Oral bioavailability in CD-1 mouse at 5 mg/kg via gavage by LC-MS/MS analysis; assay type: ADME, organism-based; settings: in vivo
[22] = Drug metabolism in mouse liver microsomes; assay type: ADME, Microsome
[23] = Mutagenicity in Salmonella typhimurium TA100 by Ames test; assay type: toxicity; settings: salmonella enterica subsp. enterica serovar typhimurium
T-cell = experiment: Immunostimulatory activity in TGFbeta/anti-CD3 stimulated BALB/c mouse naive T cells assessed as reduction in Treg induction at 0.1 to 10 uM measured after 4 days by immunostaining based flow cytometry; assay type: functional; settings: dose 0.1-10 µM, time 4.0 day
H22 = experiment: Antitumor activity against mouse H22 cells implanted in po dosed BALB/c mouse assessed as tumor growth inhibition administered twice daily for 11 days and measured 3 times per week during compound dosing; assay type: functional, organism-based; settings: dose lower […], dose upper 50.0 mg/kg, time 11.0 day
Cytochrome P450 2C9 = Cytochrome P450 2C9 (Homo sapiens, UniProt P11712); experiment: Inhibition of CYP2C9 in human liver microsomes using diclofenac as substrate preincubated for 10 mins followed by NADPH regeneration system addition and measured after 10 mins by LC-MS/MS analysis; assay type: ADME, Microsome
Sequence of Cytochrome P450 2C9 (P11712 whole entry): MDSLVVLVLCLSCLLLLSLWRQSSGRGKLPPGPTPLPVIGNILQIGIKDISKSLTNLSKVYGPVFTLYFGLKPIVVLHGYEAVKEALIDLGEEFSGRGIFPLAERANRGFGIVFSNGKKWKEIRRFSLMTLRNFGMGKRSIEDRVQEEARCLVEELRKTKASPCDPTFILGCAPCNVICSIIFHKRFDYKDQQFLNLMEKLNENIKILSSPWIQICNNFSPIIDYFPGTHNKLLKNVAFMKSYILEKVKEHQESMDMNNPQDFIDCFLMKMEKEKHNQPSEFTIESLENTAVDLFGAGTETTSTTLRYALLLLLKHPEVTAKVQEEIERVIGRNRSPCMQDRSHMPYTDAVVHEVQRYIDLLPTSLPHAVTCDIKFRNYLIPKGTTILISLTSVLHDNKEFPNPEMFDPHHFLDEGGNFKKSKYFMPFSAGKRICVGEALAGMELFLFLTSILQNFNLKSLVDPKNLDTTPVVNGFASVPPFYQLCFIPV

4T1-Luc [24] = experiment: Antimetastatic activity against mouse 4T1-Luc cells implanted in BALB/c mouse assessed as reduction in metastatic rate in lung at 100 mg/kg, po administered daily for 32 days and measured on day 30 to 35 by IVIS fluorescence analysis; assay type: functional, organism-based; settings: time 35.0 day
4T1-Luc [25] = experiment: Antimetastatic activity against mouse 4T1-Luc cells implanted in BALB/c mouse assessed as reduction in metastatic rate in intestine at 100 mg/kg, po administered daily for 32 days and measured on day 30 to 35 by IVIS fluorescence analysis; assay type: functional, organism-based; settings: time 35.0 day
[26] = Half life in CD-1 mouse at 1 mg/kg, iv by LC-MS/MS analysis; assay type: ADME, organism-based; settings: in vivo

Question: What does the source list for `Cc1cccc(-c2nn3c(c2-c2ccc4ncnn4c2/C=C/C(N)=O)CCC3)n1`?
Answer: AUClast [1]: 5626 nM.hr/ml; Activity (4T1-Luc [2]): Active; clearance [3]: 63.3 mL/min/kg; half-life [4]: 3.16 h; T>IC50 [5]: ~3.5 h; T>IC50 [6]: ~5.5 h; Activity [7]: Non-toxic; Activity [8]: Non-toxic; AUClast [9]: 18284 nM.hr/ml; IC50 (Cytochrome P450 2C19): > 100 µM; Activity (4T1-Luc [10]): Active; IC50 (Cytochrome P450 3A4): > 100 µM; Vd [11]: 0.961 L/kg; Drug metabolism [12]: metabolite_detected; Tmax [13]: 1 h; CLint scaled at […], 1 µM [14]: 19.3 mL/min/kg; Cmax [15]: 355 nM/ml; Activity (4T1-Luc [16]): Active; CLint scaled at […], 1 µM [17]: < 17.1 mL/min/kg; Activity [18]: < 50%; fraction unbound at 4 h, up to 10 µM [19]: 0.554; bioavailability [20]: 65.5%; IC50 (TGF-beta receptor type-1): 0.105 µM; bioavailability [21]: 8.74%; Drug metabolism [22]: metabolite_detected; Activity [23]: Non-toxic; Activity (T-cell): Active; TGI (H22): Dose-dependent-effect; IC50 (Cytochrome P450 2C9): > 100 µM; Activity (4T1-Luc [24]): Active; Activity (4T1-Luc [25]): Active; half-life [26]: 0.484 h
